{
  "source": "patent US20200131132A1",
  "about": "“FARNESOID X RECEPTOR AGONISTS AND USES THEREOF” (Metacrine, Inc., priority 2017, published 2020)",
  "data": [
    {"molecular_target": "T1, hFXR (Homo sapiens, UniProt Q96RI1)", "T1 construct": "expressed in transfected cells; host or cells: CV-1 cells", "T1 sequence (Q96RI1 1-486)": "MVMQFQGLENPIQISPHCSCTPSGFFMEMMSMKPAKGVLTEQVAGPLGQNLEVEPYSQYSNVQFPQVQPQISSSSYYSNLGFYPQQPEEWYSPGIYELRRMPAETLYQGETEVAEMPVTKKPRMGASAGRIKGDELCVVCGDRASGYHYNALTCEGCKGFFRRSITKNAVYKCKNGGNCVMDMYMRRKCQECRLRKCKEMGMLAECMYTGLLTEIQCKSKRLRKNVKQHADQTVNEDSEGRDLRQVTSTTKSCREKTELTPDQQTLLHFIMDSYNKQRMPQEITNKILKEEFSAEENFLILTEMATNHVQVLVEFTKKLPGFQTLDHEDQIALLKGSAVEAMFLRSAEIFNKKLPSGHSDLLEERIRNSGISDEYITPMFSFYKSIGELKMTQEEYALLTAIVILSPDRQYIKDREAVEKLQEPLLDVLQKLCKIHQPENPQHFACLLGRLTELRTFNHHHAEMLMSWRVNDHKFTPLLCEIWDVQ", "T1 sequence (P19793 1-462 partner)": "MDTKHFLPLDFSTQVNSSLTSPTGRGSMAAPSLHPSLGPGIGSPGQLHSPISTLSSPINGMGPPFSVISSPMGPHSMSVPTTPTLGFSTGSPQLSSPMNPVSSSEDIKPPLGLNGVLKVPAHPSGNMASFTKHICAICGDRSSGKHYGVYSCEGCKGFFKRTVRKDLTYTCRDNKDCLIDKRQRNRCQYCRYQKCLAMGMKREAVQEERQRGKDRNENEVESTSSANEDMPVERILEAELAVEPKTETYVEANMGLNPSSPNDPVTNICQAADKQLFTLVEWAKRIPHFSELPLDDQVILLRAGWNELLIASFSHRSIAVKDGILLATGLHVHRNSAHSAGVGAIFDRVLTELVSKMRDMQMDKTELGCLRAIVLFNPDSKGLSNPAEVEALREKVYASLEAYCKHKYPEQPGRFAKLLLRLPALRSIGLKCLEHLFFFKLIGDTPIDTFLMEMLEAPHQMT", "assay": "In Vitro FXR Assay (TK)", "assay_type": "cell-based", "settings": "CV-1 cells transfected with hFXR, hRXR, TK-ECRE-luc and pCMX-YFP; compounds incubated 18 hrs; luminescence", "method": "CV-1 cells were seeded at a density of 2,000,000 cells in a T175 flask with DMEM+10% charcoal double-stripped FBS and incubated at 37° C. in 5% CO2 for 18 h (O/N).\nAfter 18 h of incubation, the medium in the T175 flask was changed with fresh DMEM+10% charcoal super-stripped serum. In a polypropylene tube, 2500 μL OptiMEM (Life Technologies, Cat #31985-062) was combined with expression plasmids for hFXR, hRXR, TK-ECRE-luc and pCMX-YFP. The tube was then briefly vortexed and incubated at room temperature for 5 minutes. Transfection reagent (X-tremeGENE HP from Roche, Cat #06 366 236 001) was added to the OptiMEM/plasmid mixture vortexed and incubated at room temperature for 20 minutes. Following incubation, the transfection reagent/DNA mixture complex was added to cells in the T175 flask and the cells were incubated at 37° C. in 5% CO2 for 18 h (O/N).\nCompounds were serially diluted in DMSO and added to transfected CV-1 cells. The cells were then incubated for 18 hrs. The next day cells were lysed and examined for luminescence.", "units": {"EC50": "µM"}, "values": [
      {"compound": "COc1ccc(-c2ccc(CN(C(=O)CC(C)(C)C)c3nccc4cc(OC5CCN(C(=O)OC(C)(C)C)CC5)ccc34)cc2)cc1C", "note": "[Compound 8.05, tert-Butyl 4-((1-(N-((4′-methoxy-3′-methyl-[1,1′-biphenyl]-4-yl)methyl)-3,3-dimethylbutanamido)isoquinolin-6-yl)oxy)piperidine-1-carboxylate]", "EC50": "> 10"},
      {"compound": "COc1ccc(-c2ccc(CN(C(=O)CC(C)(C)C)c3nccc4cc(OC5CCN(C)CC5)ccc34)cc2)cc1C", "note": "[Compound 8.06, N-((4′-Methoxy-3′-methyl-[1,1′-biphenyl]-4-yl)methyl)-3,3-dimethyl-N-(6-((1-methylpiperidin-4-yl)oxy)isoquinolin-1-yl)butanamide]", "EC50": "> 10"},
      {"compound": "COc1ccc(-c2ccc(CN(C(=O)CC(C)(C)C)c3nccc4cc(OC5CN(C(=O)OC(C)(C)C)C5)ccc34)cc2)cc1C", "note": "[Compound 8.07, tert-Butyl 3-((1-(N-((4′-methoxy-3′-methyl-[1,1′-biphenyl]-4-yl)methyl)-3,3-dimethylbutanamido)isoquinolin-6-yl)oxy)azetidine-1-carboxylate]", "EC50": "> 10"},
      {"compound": "COCCCOc1ccc2c(N(Cc3ccc(-c4ccc(OC)c(C)c4)cc3)C(=O)CC(C)(C)C)nccc2c1", "note": "[Compound 8.08, N-((4′-Methoxy-3′-methyl-[1,1′-biphenyl]-4-yl)methyl)-N-(6-(3-methoxypropoxy)isoquinolin-1-yl)-3,3-dimethylbutanamide]", "EC50": "≤ 1"},
      {"compound": "COc1ccc(-c2ccc(CN(C(=O)CC(C)(C)C)c3nccc4cc(OC5COC5)ccc34)cc2)cc1C", "note": "[Compound 8.09, N-((4′-Methoxy-3′-methyl-[1,1′-biphenyl]-4-yl)methyl)-3,3-dimethyl-N-(6-(oxetan-3-yloxy)isoquinolin-1-yl)butanamide]", "EC50": "≤ 1"},
      {"compound": "COc1ccc(-c2ccc(CN(C(=O)CC(C)(C)C)c3nccc4cc(OCCO)ccc34)cc2)cc1C", "note": "[Compound 8.11, N-(6-(2-Hydroxyethoxy)isoquinolin-1-yl)-N-((4′-methoxy-3′-methyl-[1,1′-biphenyl]-4-yl)methyl)-3,3-dimethylbutanamide]", "EC50": "≤ 1"},
      {"compound": "COc1ccc(-c2ccc(CN(C(=O)CC(C)(C)C)c3nccc4cc(OCCCN(C)C)ccc34)cc2)cc1C", "note": "[Compound 8.12, N-(6-(3-(Dimethylamino)propoxy)iso-quinolin-1-yl)-N-((4′-methoxy-3′-methyl-[1,1′-biphenyl]-4-yl)methyl)-3,3-dimethylbutanamide]", "EC50": "1 to 10"},
      {"compound": "COc1ccc(-c2ccc(CN(C(=O)CC(C)(C)C)c3nccc4cc(OCCCO)cnc34)cc2)cc1C", "note": "[Compound 8.13, N-(3-(3-Hydroxypropoxy)-1,7-naphthyridin-8-yl)-N-((4′-methoxy-3′-methyl-[1,1′-biphenyl]-4-yl)methyl)-3,3-dimethylbutanamide]", "EC50": "≤ 1"},
      {"compound": "COCCOc1ccc2c(N(Cc3ccc(-c4ccc(OC)c(C)c4)cc3)C(=O)CC(C)(C)C)nccc2c1", "note": "[Compound 9, N-((4′-Methoxy-3′-methyl-[1,1′-biphenyl]-4-yl)methyl)-N-(6-(2-methoxyethoxy)isoquinolin-1-yl)-3,3-dimethylbutanamide]", "EC50": "≤ 1"},
      {"compound": "COC(=O)COc1ccc2c(N(Cc3ccc(-c4ccc(OC)c(C)c4)cc3)C(=O)CC(C)(C)C)nccc2c1", "note": "[Compound 9.01, Methyl 2-((1-(N-((4′-methoxy-3′-methyl-[1,1′-biphenyl]-4-yl)methyl)-3,3-dimethylbutanamido)isoquinolin-6-yl)oxy)acetate]", "EC50": "1 to 10"},
      {"compound": "COC(=O)COCc1ccc2c(N(Cc3ccc(-c4ccc(OC)c(C)c4)cc3)C(=O)CC(C)(C)C)nccc2c1", "note": "[Compound 9.02, Methyl 2-((1-(N-((4′-methoxy-3′-methyl-[1,1′-biphenyl]-4-yl)methyl)-3,3-dimethylbutanamido)isoquinolin-6-yl)methoxy)acetate]", "EC50": "≤ 1"},
      {"compound": "COCc1ccc2c(N(Cc3ccc(-c4ccc(OC)c(C)c4)cc3)C(=O)CC(C)(C)C)nccc2c1", "note": "[Compound 9.03, N-((4′-Methoxy-3′-methyl-[1,1′-biphenyl]-4-yl)methyl)-N-(6-(methoxymethyl)isoquinolin-1-yl)-3,3-dimethylbutanamide]", "EC50": "≤ 1"},
      {"compound": "COCCOCc1ccc2c(N(Cc3ccc(-c4ccc(OC)c(C)c4)cc3)C(=O)CC(C)(C)C)nccc2c1", "note": "[Compound 9.04, N-((4′-Methoxy-3′-methyl-[1,1′-biphenyl]-4-yl)methyl)-N-(6-((2-methoxyethoxy)methyl)isoquinolin-1-yl)-3,3-dimethylbutanamide]", "EC50": "≤ 1"},
      {"compound": "COc1ccc(-c2ccc(CN(C(=O)CC(C)(C)C)c3nccc4cc(OCC(C)CO)ccc34)cc2)cc1C", "note": "(stereo not drawn) [Compound 10, N-(6-(3-Hydroxy-2-methylpropoxy)isoquinolin-1-yl)-N-((4′-methoxy-3′-methyl-[1,1′-biphenyl]-4-yl)methyl)-3,3-dimethylbutanamide]", "EC50": "≤ 1"},
      {"compound": "COc1ccc(-c2ccc(CN(C(=O)CC(C)(C)C)c3nccc4cc(OC(C)CCO)ccc34)cc2)cc1C", "note": "(stereo not drawn) [Compound 10.01, N-(6-((4-Hydroxybutan-2-yl)oxy)isoquinolin-1-yl)-N-((4′-methoxy-3′-methyl-[1,1′-biphenyl]-4-yl)methyl)-3,3-dimethylbutanamide]", "EC50": "≤ 1"},
      {"compound": "COc1ccc(-c2ccc(CN(C(=O)CC(C)(C)C)c3nccc4cc(OC5CCC(O)C5)ccc34)cc2)cc1C", "note": "(stereo not drawn) [Compound 10.02, N-(6-((3-Hydroxycyclopentyl)oxy)iso-quinolin-1-yl)-N-((4′-methoxy-3′-methyl-[1,1′-biphenyl]-4-yl)methyl)-3,3-dimethylbutanamide]", "EC50": "≤ 1"},
      {"compound": "COc1ccc(-c2ccc(CN(C(=O)CC(C)(C)C)c3nccc4cc(OCCC(C)O)ccc34)cc2)cc1C", "note": "(stereo not drawn) [Compound 10.03, N-(6-(3-Hydroxybutoxy)isoquinolin-1-yl)-N-((4′-methoxy-3′-methyl-[1,1′-biphenyl]-4-yl)methyl)-3,3-dimethylbutanamide]", "EC50": "≤ 1"},
      {"compound": "CCOc1ccc2c(N(Cc3ccc(-c4ccc(OC)c(C)c4)cc3)C(=O)CC(C)(C)C)nccc2c1", "note": "[Compound 11, N-(6-Ethoxyisoquinolin-1-yl)-N-((4′-methoxy-3′-methyl-[1,1′-biphenyl]-4-yl)methyl)-3,3-dimethylbutanamide]", "EC50": "≤ 1"},
      {"compound": "COc1ccc(-c2ccc(CN(C(=O)CC(C)(C)C)c3nccc4cc(OC(C)C)ccc34)cc2)cc1C", "note": "[Compound 11.01, N-(6-Isopropoxyisoquinolin-1-yl)-N-((4′-methoxy-3′-methyl-[1,1′-biphenyl]-4-yl)methyl)-3,3-dimethylbutanamide]", "EC50": "≤ 1"},
      {"compound": "CCCOc1ccc2c(N(Cc3ccc(-c4ccc(OC)c(C)c4)cc3)C(=O)CC(C)(C)C)nccc2c1", "note": "[Compound 11.02, N-((4′-Methoxy-3′-methyl-[1,1′-biphenyl]-4-yl)methyl)-3,3-dimethyl-N-(6-propoxyisoquinolin-1-yl)butanamide]", "EC50": "≤ 1"},
      {"compound": "COc1ccc2ccnc(N(Cc3ccc(-c4ccc(OC)c(C)c4)cc3)C(=O)CC(C)(C)C)c2c1", "note": "[Compound 11.03, N-((4′-Methoxy-3′-methyl-[1,1′-biphenyl]-4-yl)methyl)-N-(7-methoxyisoquinolin-1-yl)-3,3-dimethylbutanamide]", "EC50": "≤ 1"},
      {"compound": "COc1ccc(-c2ccc(CN(C(=O)CC(C)(C)C)c3nccc4c(OC)cccc34)cc2)cc1C", "note": "[Compound 11.04, N-((4′-Methoxy-3′-methyl-[1,1′-biphenyl]-4-yl)methyl)-N-(5-methoxyisoquinolin-1-yl)-3,3-dimethylbutanamide]", "EC50": "1 to 10"},
      {"compound": "COc1ccc(-c2ccc(CN(C(=O)CC(C)(C)C)c3nccc4cc(C)ccc34)cc2)cc1C", "note": "[Compound 12, N-((4′-Methoxy-3′-methyl-[1,1′-biphenyl]-4-yl)methyl)-3,3-dimethyl-N-(6-methylisoquinolin-1-yl)butanamide]", "EC50": "≤ 1"},
      {"compound": "COc1ccc(-c2ccc(CN(C(=O)CC(C)(C)C)c3nccc4ccc(C#N)cc34)cc2)cc1C", "note": "[Compound 13, N-(7-Cyanoisoquinolin-1-yl)-N-((4′-methoxy-3′-methyl-[1,1′-biphenyl]-4-yl)methyl)-3,3-dimethylbutanamide]", "EC50": "1 to 10"}
    ]}
  ]
}
